Assay results reported in patent publication US20250289810A1, “Compounds As NLRP3 Inflammasome Inhibitors And Their Use As Medicaments” (MAM-AGE S.R.L., priority 2022, published 2025).
Entries after “also recorded” stand apart in the source; their conditions may differ.

Key:
NLRC4 inflammasome = molecular target: T1, NLRC4 inflammasome (Mus musculus, UniProt Q3UP24); experiment: NLRC4 inflammasome activation in LPS-primed BMDM transfected with flagellin of S. typhimurium (IL-1β ELISA); type: cell-based; conditions: LPS 100 ng/ml 3 hours, compound 1 μm 30 minutes, flagellin 100 ng/ml 2 hours
T1 construct: endogenous in cells; host or cells: mouse BMDM, LPS-primed, transfected with S. typhimurium flagellin
Experimental: (§1) The selectivity of compound 4 as an inhibitor of NLRP3 was then evaluated with respect to NLRC4 and absent in melanoma 2 (AIM2) inflammasomes. For activation of NLRC4 inflammasome, BMDM were treated with LPS (100 ng/ml) for 3 hours. Subsequently, the culture medium was removed and replaced with a serum-free medium containing compound 4 (1 μm for 30 minutes), finally the cells were transfected with flagellin (100 ng/ml) by S. typhimurium for 2 hours. The supernatant was tested by ELISA. […] The effect of the same compounds was examined on the non-NLR AIM2 inflammasome by transfecting BMDM with the dsDNS analogue Poly (dA:dT).
The selectivity of compounds 6c and 10 of Formula (III) as inhibitors of NLRP3 was then evaluated with respect to NLRC4 inflammasome. For activation of NLRC4 inflammasome, BMDM were treated with LPS (100 ng/ml) for 3 hours. Subsequently the culture medium was removed and replaced with a serum-free medium containing […] (1 μm for 30 minutes), finally the cells were transfected with flagellin (100 ng/ml) by S. typhimurium for 2 hours. The supernatant was tested by ELISA.

AIM2 inflammasome = molecular target: T2, AIM2 inflammasome (Mus musculus, UniProt Q91VJ1); experiment: AIM2 inflammasome activation in BMDM transfected with Poly(dA:dT) (IL-1β secretion); type: cell-based
T2 construct: non-NLR AIM2 inflammasome by transfecting BMDM with the dsDNS analogue Poly (dA:dT); endogenous in cells; host or cells: mouse BMDM transfected with poly(dA:dT)
T2 sequence (Q91VJ1 1-354): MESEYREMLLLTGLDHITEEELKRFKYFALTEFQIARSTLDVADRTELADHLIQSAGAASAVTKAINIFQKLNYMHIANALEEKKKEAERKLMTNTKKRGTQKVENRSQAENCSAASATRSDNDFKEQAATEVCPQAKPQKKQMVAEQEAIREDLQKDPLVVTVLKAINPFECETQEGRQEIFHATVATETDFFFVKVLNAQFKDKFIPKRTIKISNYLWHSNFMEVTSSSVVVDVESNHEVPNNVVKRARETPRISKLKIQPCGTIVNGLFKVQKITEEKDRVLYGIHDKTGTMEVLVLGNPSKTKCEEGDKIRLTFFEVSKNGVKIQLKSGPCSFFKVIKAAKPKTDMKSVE
Experimental: as §1

THP-1 cells = experiment: RealTime-Glo MT Cell Viability assay on THP-1 cells; type: cell-based, human; conditions: 1 μM, 48 hours
Experimental: (§2) Cell viability was evaluated on THP-1 cells using realtime-Glo” MT Cell Viability Assay (Promega Italia, MI). Briefly, the cells were seeded in a 96 multiwell (10×10^4 cells/well), treated with the selected compound of Formula (II), and incubated for 48 hours. After treatment, the cells were incubated for 10 minutes in the incubator with the realtime-Glo” reagent following protocol. The luminescence was measured every 12 hours in the Glomax Multi Detection System Promega. The luminescence signal correlates with the number of metabolically active cells.
as §2, with “compound,” for “compound of Formula (II),”, “cells. The results represent the mean luminescence values (RLU)±SEM.” for “cells.”

[1] = test system: B16-F10cytLUC melanoma cells; experiment: Tumor growth of B16-F10cytLUC melanoma cells inoculated subcutaneously in C57BL/6 mice; type: in vivo; conditions: 25 mg/Kg intraperitoneal thrice weekly
Experimental: A total of 1×10^6 B16-F10 melanoma cells transfected with cytluc (B16-F10cytLUC) were subcutaneously inoculated into females, 6- to 8-week-old C57BL/6 mice. Tumor growth was monitored daily, and tumor volumes were measured every other day with calipers using the following equation: Volume=π/6×(a×b2), where “a” is the major diameter and “b” is the minor diameter. As soon as the mass was palpable, mice were randomly divided (5 mice per group) into the treatment groups and the control group, with 5 mice per group. For NLRP3 inflammasome inhibition, mice were intraperitoneal injected with selected molecules thrice weekly at 25 mg/Kg; control mice received equal volumes of DMSO.
Luciferase luminescence was followed by a total body luminometer (IVIS Lumina, Caliper-PerkinElmer).

B16-F10 melanoma cells = experiment: B16-F10 cancer cell proliferation (crystal violet growth curve); type: cell-based; conditions: 1 μM, 5 days
Experimental: B16-F10 cells were treated with selected inhibitors (1 μM) then were counted with a Burker chamber and plated in five sets of 4 wells of a 24-well plate. Starting from the following day (day 1) 1 set of wells (at days 2, 3, 4 and 5) was washed once with PBS, fixed in 4% formaldehyde solution for 15 min at room temperature, and then kept in PBS at 4° C. At day 5, all the wells were stained with crystal violet for 20 minutes, lysed with 10% acetic acid, then the absorbance was read at 595 nm.

B16-F10 cells = experiment: Transwell co-culture of peritoneal macrophages and B16-F10 cells (tumor microenvironment); type: cell-based; conditions: macrophages: LPS 1 μg/mL 2 hours, compound 1 μM 30 minutes, ATP 1 hour; 48 h
Experimental: Co-culture of peritoneal macrophages and B16-F10 cells were performed using Transwell chambers with 0.4-μm pores on the membranes (Corning, Corning, NY, USA). Peritoneal macrophages and B16-F10 cells were cultured in the lower and upper compartments of the Transwell chamber, respectively, for 48 h. Peritoneal macrophages were seeded at a density of 2×10^5 cells and treated with LPS (1 μg/mL) for 2 hours, then DMSO or compound 4 (1 μM) of Formula (II) for 30 minutes and finally stimulated with ATP for 1 hour. B16-F10 cells were seeded at a density of 2×10^3 cells each well.
Co-culture of peritoneal macrophages and B16-F10 cells were performed using Transwell chambers with 0.4-μm pores on the membranes (Corning, Corning, NY, USA). Peritoneal macrophages and B16-F10 cells were cultured in the lower and upper compartments of the Transwell chamber, respectively, for 48 h. Peritoneal macrophages were seeded at a density of 2×10^5 cells and treated with LPS (1 μg/mL) for 2 hours, then DMSO or compounds of Formula (III) (1 μM) for 30 minutes and finally stimulated with ATP for 1 hour. B16-F10 cells were seeded at a density of 2×10^3 cells each well.

[2] = preclinical studies; cited from earlier work
[3] = clinical development, phase II; cited from earlier work
chronic myeloid leukemia = conditions: cited from earlier work
[4] = test system: pancreatic adenocarcinoma; conditions: cited from earlier work
[5] = test system: head and neck squamous cell carcinoma; conditions: head and neck squamous cell carcinoma mouse model; cited from earlier work

T1 sequence (Q3UP24 whole entry): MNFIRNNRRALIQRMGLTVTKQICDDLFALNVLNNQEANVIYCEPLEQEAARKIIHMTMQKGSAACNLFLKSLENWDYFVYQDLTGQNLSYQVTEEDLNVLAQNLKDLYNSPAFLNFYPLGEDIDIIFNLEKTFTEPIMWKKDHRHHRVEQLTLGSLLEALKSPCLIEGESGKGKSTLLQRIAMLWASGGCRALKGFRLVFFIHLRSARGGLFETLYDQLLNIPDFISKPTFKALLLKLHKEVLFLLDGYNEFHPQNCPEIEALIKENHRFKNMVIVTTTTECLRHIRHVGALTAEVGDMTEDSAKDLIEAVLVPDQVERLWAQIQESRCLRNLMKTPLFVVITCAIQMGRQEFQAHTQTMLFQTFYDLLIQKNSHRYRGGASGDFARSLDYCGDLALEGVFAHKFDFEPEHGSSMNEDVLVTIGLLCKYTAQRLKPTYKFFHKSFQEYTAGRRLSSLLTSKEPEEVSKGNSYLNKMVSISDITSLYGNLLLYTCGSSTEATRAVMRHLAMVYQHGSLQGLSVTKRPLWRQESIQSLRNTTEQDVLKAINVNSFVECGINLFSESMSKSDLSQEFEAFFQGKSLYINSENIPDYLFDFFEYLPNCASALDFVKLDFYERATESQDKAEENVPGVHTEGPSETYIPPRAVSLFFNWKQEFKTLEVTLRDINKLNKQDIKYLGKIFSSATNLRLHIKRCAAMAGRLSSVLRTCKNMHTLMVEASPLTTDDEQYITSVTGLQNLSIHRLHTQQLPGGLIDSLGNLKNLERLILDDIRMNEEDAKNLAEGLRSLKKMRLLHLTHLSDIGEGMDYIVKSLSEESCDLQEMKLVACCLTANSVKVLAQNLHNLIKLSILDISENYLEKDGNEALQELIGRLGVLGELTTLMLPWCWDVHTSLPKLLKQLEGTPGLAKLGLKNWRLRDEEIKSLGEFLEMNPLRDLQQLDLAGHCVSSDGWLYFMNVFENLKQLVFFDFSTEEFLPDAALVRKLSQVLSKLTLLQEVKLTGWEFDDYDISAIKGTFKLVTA

Row | SMILES | Effect on activation of NLRC4 inflammasome triggered by flagellin S. typhimurium (NLRC4 inflammasome) | IL-1β secretion on AIM2 inflammasome activation (AIM2 inflammasome) | Cytotoxicity / cell viability of THP-1 cells (THP-1 cells) | Reduction of tumor mass vs vehicle (DMSO) [1] | Direct effect on cell proliferation of B16-F10 melanoma cells (B16-F10 melanoma cells) | Growth of B16-F10 cells co-cultured with treated peritoneal macrophages (B16-F10 cells) | Oral bioavailability [2] | Serum liver enzyme levels / hepatotoxicity [3] | Cell proliferation (chronic myeloid leukemia) | Cell proliferation [4] | Tumor growth [5]
1 | Nc1ccc(S(=O)(=O)N2Cc3ccccc3C[C@H]2C(=O)Nc2c3c(cc4c2CCC4)CCC3)cc1 [Compound 4 of Formula (II), (S)-2-((4-aminophenyl)sulfonyl)-N-(1,2,3,5,6,7-hexahydro-s-indacen-4-yl)-1,2,3,4-tetrahydroisoquinoline-3-carboxamide] | no effect | A reduction in the amount of IL-1β secretion was not observe | no cytotoxicity | about 50% | no direct effect | treated with the vehicle alone grew more than B16-F10 cells in contact with peritoneal macrophages treated with compound 4 |  |  |  |  | 
2 | CC(C)(O)c1coc(S(=O)(=O)NC(=O)Nc2c3c(cc4c2CCC4)CCC3)c1 [MCC950, N-((1,2,3,5,6,7-hexahydro-s-indacen-4-yl)carbamoyl)-4-(2-hydroxypropan-2-yl)furan-2-sulfonamide] |  |  |  |  |  |  | good oral bioavailability | hepatotoxicity problems; also recorded: elevation of serum liver enzyme levels | suppress cell proliferation | suppress cell proliferation | delay tumor growth
